Entries after “also recorded” stand apart in the source; their conditions may differ.
Experiments:
[1] = test system: transgenic podocytes; test: Direct visualization (sequential photographs) of plated podocytes; format: cell-based, mouse; conditions: addition of ATRA
Method: Cellular proliferation was also assessed through direct visualization of 10 cm plated cells at d 1, 2, 4, 6 and 8 growth restriction. Proliferation was assessed by the number of cells seen within a small circle marked on the plate. A total of four circles were marked and observed per plate. The circles were numbered #1-4 and photographed at the above time points. One exemplary circle was chosen per plate and followed through all time points. The four groups were compared at all time points.

[2] = test system: transgenic podocytes; test: Immunostaining of HIV transgenic podocytes for podocyte and cell cycle proteins
[3] = test system: C57BL6 mice with anti-glomerular antibody-mediated podocyte injury; test: Anti-glomerular antibody model of podocyte injury: immunostaining of kidney tissue; format: in vivo, mouse; conditions: for PCNA staining (podocyte proliferation) vs control: FIG. 4; for WT-1 staining (podocyte number) vs control: P<0.001, FIG. 5
Method: Immunofluorescent staining of kidney tissue. Mouse kidney biopsies were fixed in methyl Carnoy's (MC) solution or snap frozen in liquid nitrogen for analysis of proliferating cell nuclear antigen (PCNA), WT-1, podocin, synaptopodin, podocalyxin, and nephrin in vivo following ATRA treatment in anti-glomerular disease. Sections (4 μm) were cut from paraffin embedded MC fixed tissue or from OCT embedded frozen tissue. Frozen sections were then fixed in 100% methanol at −20° C. Mouse monoclonal antibody to PCNA (Beckman Coulter Miami, Fla., USA) or rabbit polyclonal antibody to WT-1 were incubated on MC-fixed tissue, and rabbit polyclonal antibodies to podocin, nephrin, podocalyxin, and synaptopodin were incubated on frozen sections. Primary mouse antibody to PCNA was incubated with a peroxidase conjugated rat anti-mouse IgM antibody (Zymed Laboratories, Inc. So. San Francisco, Calif., USA); all other primary antibodies were incubated with biotinylayted goat anti-rabbit antibody followed by either avidin D conjugated horseradish peroxidase (WT-1) or avidin conjugated AlexaFluor. PCNA and WT-1 stains were visualized with diaminobenzidine (Sigma Chemicals, St. Louis, Mo., USA).
An antibody-mediated model of podocyte injury was induced in C57BL6 mice with a sheep anti-glomerular antibody (two doses of 0.3 ml/20 gm body weight) over two consecutive days. Kim et al. (1999) Kidney Int 55:2349-2361; and Ophascharoensuk et al. (1998) Kidney Int 54:416-425. After the induction of the anti-glomerular model, but before the development of proteinuria, mice were then divided into an experimental group that received daily injections of ATRA 16.6 mg/kg (IP), and a control group that received vehicle (corn oil). […] The podocyte specific proteins WT-1, nephrin, podocin, synaptopodin, were measured by immunostaining at each time point, as was the proliferation marker, PCNA (see above). Using proliferating cell nuclear antigen (PCNA) as a marker of proliferation and WT-1 as a marker for podocytes, the level of podocyte proliferation was determined.

[4] = test system: heat sensitive mouse podocytes; test: MTT cell proliferation assay, heat sensitive mouse podocytes (HSMP), growth permissive; format: cell-based; conditions: heat sensitive mouse podocytes under growth permissive conditions; at higher concentrations than rat podocytes
Method: Exposure ofpodocvtes to ATRA. Rat podocytes, mouse podocytes, and growth permissive HSMP were plated at a concentration of 15,000 cell/cm^2 in standard media and allowed to adhere overnight.

[5] = test system: conditionally immortalized podocytes from transgenic HIV Tg-26; test: MTT proliferation assay, HIV transgenic (Tg) podocytes under growth restriction; format: cell-based, mouse; conditions: 25 ATRA, FIG. 6
Method: To test the hypothesis that ATRA altered the proliferative capacity of podocytes in HIV transgenic mice, conditionally immortalized podocytes harvested from transgenic HIV Tg-26 (Tg) and conditionally immortalized podocytes from transgene free or wild-type podocytes (controls) were compared in a series of studies. Both transgenic and wild-type cell lines were initially plated in “growth permissive” conditions (33° C.) and grown in 10 ml of “standard media,” consisting of 90% RPMI 1640 (Invitrogen, Grand Island, N.Y.), 10% fetal bovine serum (Hyclone, Logan, Utah), 1% L-glutamine (Irvine Scientific, Santa Ana, Calif.), 1% pen-strep (Biosource, Rockville, Md.), 1% sodium bicarbonate (Sigma-Aldrich, St Louis, Mo.) and 1% HEPES buffer (Sigma-Aldrich, Santa, Ana, Calif.), and 1% sodium pyruvate (Irvine Scientific, Santa Ana, Calif.). For growth promotion, 5 μl of mouse gamma interferon were added to 10 ml of media. […]
Each study group was assessed for proliferation (see below) at three different time points as follows: (i) day “1” of growth restriction which was defined as 24 h after plating cells into growth restrictive conditions; (ii) day 7 of growth restrictive conditions. […]
Cell proliferation was assessed by the MTT (Promega, Madison, Wis.) assay on days 1, 7, and 14 of growth restriction. […]

[6] = test system: normal mice; test: Pilot study of adverse side effects in normal mice; format: in vivo, mouse; conditions: 16 mg/kg i.p. for 7 days
Method: Pilot studies were performed to determine if giving ATRA 16 mg/kg i.p. for 7 days caused adverse side effects in normal mice. […] To determine the effect of ATRA on podocytes in vivo, mice with experimental glomerular disease were given ATRA intraperitoneally (i.p.) on two consecutive days. […] Renal function was assessed by measuring proteinuria and BUN.

[7] = transgenic podocytes, day 7 of growth restriction
[8] = nephritic mice, days 5 and 14 after disease induction, vs control nephritic mice given vehicle
[9] = nephritic mice, vs control nephritic animals given vehicle

**Q.** What does the source list for `CC1=C(/C=C/C(C)=C/C=C/C(C)=C/C(=O)O)C(C)(C)CCC1` [ATRA, all-trans retinoic acid]?
**A.** proliferation of transgenic podocytes (sequential photographs, 10 cm culture dishes) [1]: attenuated; cyclin A staining vs standard media ([2]; ATRA exposed group): decreased intensity of staining; cell number vs standard media ([2]; ATRA group, cyclin A staining): grossly decreased; WT-1 staining vs standard media [2, 7]: increased staining intensity; cd2ap staining vs transgenic podocytes in standard media [2, 7]: increased intensity of staining; cell size and cell number vs standard media [2, 7]: appeared larger and decreased in number; also recorded: increased cell size and decreased cell number; CD2AP staining vs standard media group ([2]; transgenic podocytes, day 14 of growth restriction): increased staining intensity; decrease in cell number ([2]; transgenic podocytes, day 14 time point): not as prominent; number of cells that stained positive for PCNA vs normal ([3]; experimental (ATRA treated) mice, day 5, P<0.05 vs normal, FIG. 4 legend): increased; PCNA staining (podocyte proliferation) vs control ([3]; nephritic mice, day 7): did not have a statistically significant effect; WT-1 staining (podocyte number) vs control ([3]; nephritic mice, day 7): prevented the decrease in WT-1 staining; also recorded: prevented the decrease in podocyte number; PCNA staining (podocyte proliferation) vs control ([3]; nephritic mice, day 14): significantly reduced podocyte proliferation; also recorded: significantly reduced PCNA immunostaining; WT-1 staining (podocyte number) vs control ([3]; nephritic mice, day 14): prevented the decrease in WT-1 staining; also recorded: prevented the decrease in podocyte number; nephrin immunostaining in kidney [3, 8]: prevented the decrease in immunostaining; podocin immunostaining in kidney [3, 8]: prevented the decrease in immunostaining; synaptopodin immunostaining in kidney [3, 8]: prevented the decrease in immunostaining; CD2AP immunostaining in kidney [3, 9]: not different from control nephritic animals; p35 immunostaining in kidney [3, 9]: not different from control nephritic animals; MTT absorbance [4]: significantly reduced MTT absorbance; reduction of proliferation of transgenic podocytes (MTT) compared to Tg podocytes without ATRA ([5]; day 7 of growth restriction, p<.05): 50%; reduction of proliferation of transgenic podocytes (MTT) compared to Tg podocytes without ATRA ([5]; day 14 of growth restriction, p<0.005): 25%; adverse side effects [6]: no weight loss, ruffled fur, withdrawal or diarrhea

Source: US20050112123A1, “Methods of treating proteinuria” (priority 2003, published 2005)
